Reference: US5891882A, “Benzopyranopyrrole and benzopyranopyridine α-1 adenergic compounds” (priority 1997, dated 1999)
Where a name gives a salt, the structure may show the parent alone.

biological target: T1, α-1A adrenoreceptor (canine prostate smooth muscle) (Canis lupus, UniProt A0A8I3NK63); assay: Functional antagonism: inhibition of phenylephrine-induced contraction of canine prostate strips; type: cell-based; conditions: Schild plot
T1 construct: antagonism of phenylephrine-induced contraction (pA2, Schild)
T1 sequence (A0A8I3NK63 1-466): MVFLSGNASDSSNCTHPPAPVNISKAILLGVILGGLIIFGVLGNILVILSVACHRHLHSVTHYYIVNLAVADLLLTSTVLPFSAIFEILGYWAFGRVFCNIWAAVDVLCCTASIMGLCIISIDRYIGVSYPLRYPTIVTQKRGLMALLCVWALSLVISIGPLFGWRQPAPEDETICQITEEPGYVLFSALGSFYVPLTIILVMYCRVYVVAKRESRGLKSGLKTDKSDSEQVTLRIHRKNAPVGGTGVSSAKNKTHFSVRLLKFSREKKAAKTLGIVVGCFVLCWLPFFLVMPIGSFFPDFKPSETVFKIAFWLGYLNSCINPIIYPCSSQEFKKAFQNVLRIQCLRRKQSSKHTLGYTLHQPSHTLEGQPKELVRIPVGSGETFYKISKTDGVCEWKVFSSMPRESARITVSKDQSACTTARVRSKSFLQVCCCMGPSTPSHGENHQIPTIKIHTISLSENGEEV
From the text: Canine prostate strips were used in vitro as previously described (Hieble, J. P., Boyce, Caine, M., Fed Proc., 45: 2609-2614 (1986)), to determine antagonist potencies phenylephrine-induced contractions.
(§1) Functional assays indicative of pharmacologically defined α-1 adrenoreceptors were used to further characterize compounds. Inhibition of phenylephrine (PE)-induced contraction of canine prostate smooth muscle can be correlated with α-1A adrenoreceptor activation. […] For each of these models, agonist dose response curves were repeated against increasing concentrations of test agent to derive a Schild plot [log ([…]) against log (molarity of test agent)] to determine the pA2.
Canine prostate strips were used in vitro as previously described (Hieble, J. P., Boyce, A. J. and Caine, M., Fed. Proc., 45: 2609-2614 (1986)), to determine antagonist potencies against phenylephrine-induced contractions.

Row | SMILES | In Vitro Characterization (pA2) Dog Prostate
1 | COc1cccc2c1[C@H]1CN(CCCCn3c(=O)[nH]c4c(sc5cccnc54)c3=O)C[C@H]1CO2 [Example 2, 3-[4-((3aS,9bS)-cis-9-Methoxy-1,2,3,3a,4,9b-hexahydro-[1]-benzopyrano[3,4-c]pyrrol-2-yl)butyl]-pyrido[2',3':4,5]thieno[3,2-d]pyrimidine-2,4(1H,3H)-dione hydrochloride] | 7.95
2 | COc1cccc2c1[C@@H]1CN(CCCCn3c(=O)[nH]c4c(sc5cccnc54)c3=O)C[C@@H]1CO2 [Example 1, 3-[4-((3aR,9bR)-cis-9-Methoxy-1,2,3,3a,4,9b-hexahydro-[1]-benzopyrano[3,4-c]pyrrol-2-yl)butyl]-pyrido[2',3':4,5]thieno[3,2-d]pyrimidine-2,4(1H,3H)-dione hydrochloride] | 8.69
3 | COc1cccc2c1[C@@H]1CCN(CCCCn3c(=O)[nH]c4c(sc5cccnc54)c3=O)C[C@H]1CO2 [Example 95, 3-[4-((4aS,10bR)-trans-10-Methoxy-1,3,4,4a,5,10b-hexahydro-2H-[1]-benzopyrano[3,4-c]pyrido-3-yl)butyl]-pyrido[2',3':4,5]thieno[3,2-d]pyrimidine-2,4(1H,3H)-dione dihydrochloride] | 8.58
4 | COc1cccc2c1[C@@H]1CN(CCCCn3c(=O)[nH]c4c(sc5cccnc54)c3=O)C[C@H]1CO2 [Example 3, 3-[4-((3aS,9bR)-trans-9-Methoxy-1,2,3,3a,4,9b-hexahydro-[1]-benzopyrano[3,4-c]pyrrol-2-yl)butyl]-pyrido[2',3':4,5]thieno[3,2-d]pyrimidine-2,4(1H,3H)-dione hydrochloride] | 9.43

More lines, now with the values ahead:

Row | In Vitro Characterization (pA2) Dog Prostate | SMILES
5 | 7.76 | COc1cccc2c1[C@@H]1CN(CCn3c(=O)[nH]c4c(sc5ccccc54)c3=O)C[C@@H]1CO2.Cl (racemic) [Example 65, 3-[2-((±)-cis-9-Methoxy-1,2,3,3a,4,9b-hexahydro-[1]-benzopyrano[3,4-c]pyrrol-2-yl)ethyl]-[1]-benzthieno[3,2-d]pyrimidine-2,4(1H,3H)-dione hydrochloride]
6 | 7.02 | COc1cccc2c1OC[C@H]1CN(CCCn3c(=O)[nH]c4c(sc5ccccc54)c3=O)C[C@@H]21.Cl (racemic) [Example 68, 3-[3-((±)-cis-6-Methoxy-1,2,3,3a,4,9b-hexahydro-[1]-benzopyrano[3,4-c]pyrrol-2-yl)propyl]-[1]-benzthieno[3,2-d]pyrimidine-2,4(1H,3H)-dione hydrochloride]
7 | 8.6 | COc1cccc2c1[C@@H]1CCN(CCCCn3c(=O)[nH]c4c(sc5ncc(Cl)nc54)c3=O)C[C@H]1CO2 [Example 97, 3-[4-((4aS,10bR)-trans-10-Methoxy-1,3,4,4a,5,10b-hexahydro-2H-[1]-benzopyrano[3,4-c]pyrido-3-yl)butyl]-8-chloro-pyrazino[2',3':4,5]thieno[3,2-d]pyrimidine-2,4(1H,3H)-dione dihydrochloride]
8 | 6.92 | COc1ccc2c(c1)OC[C@H]1CN(CCCn3c(=O)[nH]c4c(sc5ccccc54)c3=O)C[C@@H]21.Cl (racemic) [Example 64]
9 | 8.6 | COc1cccc2c1[C@@H]1CCN(CCCCn3c(=O)[nH]c4c(sc5ncccc54)c3=O)C[C@H]1CO2 (relative stereo) [Example 85, 3-[4-((±)-trans-10-Methoxy-1,3,4,4a,5,10b-hexahydro-2H-[1]-benzopyrano[3,4-c]pyrido-3-yl)butyl]-pyrido[3',2':4,5]thieno[3,2-d]pyrimidine-2,4(1H,3H)-dione dihydrochloride]

biological target: T2, α-1 Adrenoceptors (Rat Aorta) (Rattus norvegicus, UniProt P23944); assay: Functional antagonism at α-1 adrenoceptors, rat aorta; type: cell-based; conditions: read-out: In Vitro Characterization (pA2) Rat Aorta (converted)
T2 construct: Rat Aorta; from tissue; host or cells: rat aorta
T2 sequence (P23944 1-561): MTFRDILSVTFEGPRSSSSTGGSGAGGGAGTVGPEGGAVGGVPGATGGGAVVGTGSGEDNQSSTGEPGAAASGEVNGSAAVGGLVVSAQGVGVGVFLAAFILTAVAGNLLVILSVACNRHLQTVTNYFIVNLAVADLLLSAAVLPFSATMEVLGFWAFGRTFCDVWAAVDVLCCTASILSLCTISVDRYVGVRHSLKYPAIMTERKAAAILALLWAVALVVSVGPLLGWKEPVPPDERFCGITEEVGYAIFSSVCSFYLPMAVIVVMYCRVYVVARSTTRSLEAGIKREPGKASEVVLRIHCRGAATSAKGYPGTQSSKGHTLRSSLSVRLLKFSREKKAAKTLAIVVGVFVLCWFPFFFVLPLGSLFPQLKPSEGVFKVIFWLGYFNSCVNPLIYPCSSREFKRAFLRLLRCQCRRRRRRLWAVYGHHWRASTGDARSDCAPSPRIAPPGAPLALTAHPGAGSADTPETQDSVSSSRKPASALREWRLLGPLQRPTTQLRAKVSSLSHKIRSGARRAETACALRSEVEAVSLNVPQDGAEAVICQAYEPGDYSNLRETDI
From the text: as §1

Row | SMILES | Kb [nM]
10 | COc1cccc2c1[C@@H]1CN(CCCCn3c(=O)[nH]c4c(sc5ccc(Cl)nc54)c3=O)C[C@H]1CO2 [Example 25, 3-[4-((3aS,9bR)-trans-9-Methoxy-1,2,3,3a,4,9b-hexahydro-[1]-benzopyrano[3,4-c]pyrrol-2-yl)butyl]-8-chloro-pyrido[2',3':4,5]thieno[3,2-d]pyrimidine-2,4(1H,3H)-dione dihydrochloride] | 0.0138
11 | COc1cccc2c1[C@@H]1CN(CCCCn3c(=O)[nH]c4c(sc5c(OC)ccnc54)c3=O)C[C@@H]1CO2 [Example 18, 3-[4-((3aR,9bR)-cis-9-Methoxy-1,2,3,3a,4,9b-hexahydro-[1]-benzopyrano[3.4-c]pyrrol-2-yl)butyl]-6-methoxy-pyrido[2',3':4,51thieno[3,2-d]pyrimidine-2,4(1H,3H)-dione dihydrochloride] | 0.457
12 | COc1cccc2c1[C@@H]1CN(CCCCn3c(=O)[nH]c4c(sc5nccc(OC)c54)c3=O)C[C@@H]1CO2 [Example 36, 3-[4-((3aR,9bR)-cis-9-Methoxy-1,2,3,3a,4,9b-hexahydro-[1]-benzopyrano[3,4-c]pyrrol-2-yl)butyl]-9-methoxy-pyrido[2',3':4,5]thieno[3,2-d]pyrimidine-2,4(1H,3H)-dione hydrochloride] | 0.372
13 | COc1cccc2c1[C@@H]1CN(CCCCn3c(=O)[nH]c4c(sc5cnccc54)c3=O)C[C@@H]1CO2 [Example 29, 3-[4-((3aR,9bR)-cis-9-Methoxy-1,2,3,3a,4,9b-hexahydro-[1]-benzopyrano[3,4-c]pyrrol-2-yl)butyl]-pyrido[4',3':4,5]thieno[3,2-d]pyrimidine-2,4(1H,3H)-dione hydrochloride] | 0.501
14 | COc1cccc2c1[C@@H]1CN(CCCCn3c(=O)[nH]c4c(sc5c(OC)ccnc54)c3=O)C[C@H]1CO2 [Example 17, 3-[4-((3aS,9bR)-trans-9-Methoxy-1,2,3,3a,4,9b-hexahydro-[1]-benzopyrano[3,4-c]pyrrol-2-yl)butyl]-6-methoxy-pyrido[2',3':4,51thieno[3,2-d]pyrimidine-2,4(1H,3H)-dione dihydrochloride] | 0.631
15 | COc1cccc2c1[C@@H]1CN(CCCCn3c(=O)[nH]c4c(sc5cc(Cl)cnc54)c3=O)C[C@@H]1CO2 [Example 38, 3-[4((3aR,9bR)-cis-9-Methoxy-1,2,3,3a,4,9b-hexahydro-[1]-benzopyrano[3,4-c]pyrrol-2-yl)butyl]-7-chloro-pyrido[2',3':4,5]thieno[3,2-d]pyrimidine-2,4(1H,3H)-dione hydrochloride] | 1.15
16 | COc1cnc2sc3c(=O)n(CCCCN4C[C@@H]5COc6cccc(OC)c6[C@@H]5C4)c(=O)[nH]c3c2n1 [Example 31, hydrochloride] | 0.794
17 | COc1cccc2c1[C@@H]1CN(CCCCn3c(=O)[nH]c4c(sc5nc(C)ccc54)c3=O)C[C@@H]1CO2 [Example 35, hydrochloride] | 0.741

Continued, values first:

Row | Kb [nM] | SMILES
18 | 0.229 | COc1cccc2c1[C@@H]1CN(CCCCn3c(=O)[nH]c4c(sc5ccc(Cl)nc54)c3=O)C[C@@H]1CO2 [Example 37, 3-[4((3aR,9bR)-cis-9-Methoxy-1,2,3,3a,4,9b-hexahydro-[1]-benzopyrano[3,4-c]pyrrol-2-yl)butyl]-8-chloro-pyrido[2',3':4,5]thieno[3,2-d]pyrimidine-2,4(1H,3H)-dione hydrochloride]
19 | 0.182 | COc1cccc2c1[C@@H]1CN(CCCCn3c(=O)[nH]c4c(sc5ccc(OC(C)C)nc54)c3=O)C[C@H]1CO2 [Example 51, 3-[4-((3aS,9bR)-trans-9-Methoxy-1,2,3,3a,4,9b-hexahydro-[1]-benzopyrano[3,4-c]pyrrol-2-yl)butyl]-8-isopropoxy-pyrido[2',3':4,5]thieno[3,2-d]pyrimidine-2,4(1H,3H)-dione hydrochloride]
20 | 4.47 | COc1cccc2c1[C@@H]1CN(CCCCn3c(=O)[nH]c4c(sc5nc(-c6ccccc6)cnc54)c3=O)C[C@@H]1CO2 [Example 40, 3-[4-((3aR,9bR)-cis-9-Methoxy-1,2,3,3a,4,9b-hexahydro-[1]-benzopyrano[3,4-c]pyrrol-2-yl)butyl]-7-phenyl-pyrazino[2',3':4,5]thieno[3,2-d]pyrimidine-2,4(1H,3H)-dione hydrochloride]
